The values that follow are results of earlier work, collected in patent publication US11219614B2, “Combination cancer therapy with pentaaza macrocyclic ring complex and ascorbate compound” (Galera Labs, LLC, priority 2016, dated 2022).

For data set [1] the following is noted: pH 7, absence of catalytic metals; cited from earlier work.
For data set [2], the system named is experimental model of colitis. As to conditions: rats; cited from earlier work.
The subject of data set [3] is radiation-induced oral mucositis. The settings on record: hamster, acute radiation-induced oral mucositis; cited from earlier work.
Another data set has as its system inflammation. The settings on record: rat model; cited from earlier work.
The test system of data set [4] is collagen-induced arthritis. As to conditions: rat; cited from earlier work.
The test system of data set [5] is lethal total body irradiation. The settings on record: adult mice; cited from earlier work.

As for `O=C1O[C@H]([C@@H](O)CO)C(O)=C1O` [ascorbic acid, (5R)-[(1S)-1,2-Dihydroxyethyl]-3,4-dihydroxyfuran-2(5H)-one], the stability of solution result in data set [1] is “stable at pH 7”.

Turning to `[Cl-].[Cl-].[Mn+2].c1cc2nc(c1)CN[C@@H]1CCCC[C@H]1NCCN[C@@H]1CCCC[C@H]1NC2` [GC4403], in data set [2], the “injury to the colon” value is “very significantly reduce the injury to the colon”. In addition, the radiation damage result in data set [3] and in data set [5] was “attenuate the radiation damage” each time. Besides, the inflammation entry in the data set on inflammation is “inhibit inflammation”. Moreover, the joint disease entry in data set [4] is on record as “prevent joint disease”.
